Assay: Thermal decomposition of the azo compound (10 hour half-life temperature, decomposition rate constant)
Assay type: physicochemical

2,2′-azobis[2-methyl-1-(1-pyrrolidinyl)iminopropane] hydrochloride [Example 1]
10 hour half-life temperature: 66.5 °C | Decomposition rate constant k60° C. (60° C.): 7.94e-06 s⁻¹ | Decomposition rate constant k70° C. (70° C.): 3.03e-05 s⁻¹ | Ea (decomposition kinetics): 30.39 kcal/mol | lnA (decomposition kinetics): 34.19

Source: patent US6403774B1, “Azoamidine compound” (Wako Pure Chemical Industries, Ltd., priority 2000, dated 2002)
